Assay results reported in US20050042209A1, “MUC1 extracellular domain and cancer treatment compositions and methods derived therefrom” (priority 2000, published 2005).
d = 2'-deoxy (DNA); r = 2'-OH (RNA)

Legend:
HeLa cells = conditions: HeLa/MUC1 vs HeLa/V, FIG. 4
Procedure: DNA content was assessed by staining ethanol-fixed cells with propidium iodide and monitoring by FACScan (Beckton Dickerson). Numbers of cells with sub-G1 DNA content were determined with a MODFIT LT program, (Verity Software House, Topsham, Me.) (Yuan et al., 1997). The cells were analyzed for induction of sub-G1 DNA by flow cytometry as a marker of apoptosis.
The induction of apoptosis in cells treated with 0.01 mM taxol for 20 hr was assessed by measuring sub-G1 DNA content of HeLa cells expressing empty vector or MUC1.

MUC1 [1] = assay: MUC1 induction by oxidative and genotoxic stress (immunoblot)
Procedure: To determine whether MUC1 is induced in response to oxidative stress, MCF-7 cells were treated with hydrogen peroxide. Cell lysates were analyzed by immunoblotting with anti-DF3/MUC1 antibody. Lysates were prepared by suspending MCF-7 cells in lysis buffer (50 mM Tris, pH 7.6, 150 mM NaCl, 1 mM PMSF, 3 mM NaF, 1 mM sodium vandate, 1 mM DTT with protease inhibitors and either 1% NP-40 or 1% Brij-96) for 30 min. on ice. Lysates were cleared by centifugation and equal amounts of proteins were resolved by SDS-PAGE. Proteins were then transferred to nitrocellulose filters, blocked by incubation in 5% non-fat dry milk in PBS with 0.05% Tween-20 and probed with anti-MUC1 antibody (Pandey et al., 1995). Anti-actin was used as a control.
Similar studies were performed with genotoxic agents.

MUC1 [2] = test system: MUC1
Procedure: Cell Culture: Human MCF-7 breast carcinoma and HeLa cervical carcinoma cella (obtained form the ATCC, Manassas, Va.) were grown in DMEM (high glucose; Mediatech, Cellgrow) supplemented with 10% heat-inactivated fetal calf serum (FCS) and 2 mM L-glutamate.
Immunoblot analysis: Cells were lysed in ice-cold lysis buffer (20 mM Tris-HCl, pH 8.0, 150 mM NaCl, 1% Triton-X-100, 1 mM phenylsulfonyl fluoride, 1 mM DTT, 10 μgm/ml aprotinin) for 30 min. Lysates were cleared by centrifugation for 20 min. at 4° C. as described (Yin et al, 2001). Proteins were separated by SDS-PAGE, transferred to nitrocellulose and probed with anti-DF3/MUC1 (Kufe, U.S. Pat. No. 5,506,34) or anti-β-actin (Sigma). The antigen-antibody complexes were visualized by enhanced chemiluminescence (ECL; Amersham Life Sciences).
CDDO downregulates MUC1 expression: MUC1-positive cells were treated with CDDO at concentrations of 1, 3 and 5 μM.

A549 cells [3] = assay: Proliferation of A549 cells; type: cell-based, human; conditions: transfection of siRNA; FIG. 8
Procedure: (§1) Cell culture: Human non-small cell lung cancer A549 cells were grown in RPMI1640 medium supplemented with 10% fetal bovine serum (FBS), 100 units/ml of penicillin and 100 μg/ml of streptomycin, respectively.
Transfection with siRNA: Cells (3×10^5 cells/well) were plated in 6-well plates in growth medium without antibiotics, and incubated overnight. Cells were then transfected with MUC1 siRNAs, siRNA #1, i.e., one against the target sequence SEQ ID NO: 63, i.e., […] with sense and antisense strands as shown in SEQ ID NO: 64 and SEQ ID NO: 65 respectively; and siRNA #2, i.e., one against the target sequence SEQ ID NO: 42, i.e., […] with sense and antisense strands as shown in SEQ ID NO: 43 and SEQ ID NO: 44 respectively, and one control siRNA directed towards the non-specific gene target […] using Oligofectamine reagent (Invitrogen) according to the manufacturer's instructions. After 24 hr of transfection, the medium was changed to complete medium containing antibiotics.
(§2) Treatment of Cells with cisplatinum (CDDP): At 72 hr post transfection of siRNAs, 10 μM CDDP was added to the cells in fresh culture medium. After 48 hr of CDDP exposure cells were trypsinized and analyzed for MUC1 expression and apoptosis as described below.

A549 cells [4] = assay: Apoptosis assay (Annexin V-FITC/PI) in A549 cells; type: cell-based, human; conditions: FIG. 7
Procedure: as §1
Transfection with siRNA: Cells (3×10^5 cells/well) were plated in 6-well plates in growth medium without antibiotics, and incubated overnight. […]
as §2
Apoptosis assay.: A549 cells were initially stained for MUC1 expression using the DF3 monoclonal antibody (Kufe, U.S. Pat. No. 5,506,343, herein incorporated by reference). […] The amount of DF3 staining was then measured using a biotinylated goat anti-mouse secondary antibody (diluted 1:200 in staining buffer) and streptavidin-conjugated phycoerythrin (diluted 1:50 in staining buffer). After fluorescent staining for MUC1 expression, apoptosis was determined by staining cells with Annexin V-FITC and propidium iodide (PI). […] Using a flow cytometer, (EPICS XL-MCL, Coulter Corp), the amount of MUC1 expressing cells were determined using the FL2 detector, annexin V-FITC staining was measured in the FL1 detector and propidium iodide staining was measured in the FL3 detector. […]

MUC1 RNA = assay: RT-PCR of MUC1 RNA after siRNA transfection; type: cell-based, human; conditions: FIG. 5
Excerpt: (§3) siRNAs: Five different double stranded anti-MUC1 siRNAs were designed: one against the target sequence SEQ ID NO: 63, i.e., […], with sense and antisense strands as shown in SEQ ID NO: 64 and SEQ ID NO: 65 respectively (hereinafter siRNA #1); one against the target sequence SEQ ID NO: 42, i.e., […], with sense and antisense strands as shown in SEQ ID NO: 43 and SEQ ID NO: 44 respectively (hereinafter siRNA #2); one against the target sequence SEQ ID NO: 21, i.e., […], with sense and antisense strands as shown in SEQ ID NO: 22 and SEQ ID NO: 23 respectively (hereinafter siRNA #3); one against the target sequence SEQ ID NO: 66, i.e., […], with sense and antisense strands as shown by SEQ ID NO: 67 and SEQ ID NO: 68 respectively (hereinafter siRNA #4); and one against target sequence SEQ ID NO: 69, i.e., […], with sense and antisense strands as shown by SEQ ID NO: 70 and SEQ ID NO: 71 respectively (hereinafter siRNA #5). A control siRNA was designed against the scrambled target SEQ ID NO: 72 with sense and antisense strands as shown by SEQ ID NO: 73 and SEQ ID NO: 74 respectively. Each RNA sense oligonucleotide (50 μM) was combined with equal volume of antisense oligonucleotide (50 μM) in an annealing buffer (20 mM KCl, 6 mM HEPES-KOH, pH 7.5, 0.2 mM MgCl2). The solution was incubated for 1 min at 90° C. to denature secondary structure, and placed at 37° C. for 1 hour to anneal the complementary strands. The subsequent double stranded RNAs were used as the anti-MUC1 siRNA.
RT-PCR: Total RNA was extracted and purified from cultured cells using RNAzol B according the manufacturer's instructions. The RNA was quantified by determining absorbance at 260 nm. One μg of total RNA from each sample was reverse transcribed into cDNA using Thermoscript reverse transcriptase (Invitrogen) in a volume of 20 μL. The cDNA product was amplified by PCR using Platinum Taq DNA polymerase (Invitrogen) and specific primers for MUC1 and beta-actin as an internal control. The sequences of primers used were as follows; • MUC1 (forward, 5′-[…]-3′; reverse, 5′-[…]-3′) and beta-actin (forward, 5′-[…]-3′; reverse, 5′-[…]-3′).
The reaction was performed using the following program: 94° C. for 2 min, 29 cycles (25 cycles for beta-actin) at 94° C. for 2 min, 48° C. for 1 min, 72° C. for 30s and then additional extension step of 72° C. for 10 min. The PCR products were separated on a 2% agarose gel, stained with ethidium bromide and photographed under UV light.

MUC1 [5] = assay: Western blot of MUC1 after siRNA transfection; type: cell-based, human; conditions: siRNA 0.2 micromolar
Excerpt: Cell Culture: Human MCF-7 breast cancer cells were maintained in DMEM supplemented with 10% heat inactivated fetal bovine serum (FBS) and 1% penicillin-streptomycin mixture. Human A549 non-small cell lung cancer cells were maintained in RPMI1640 medium supplemented with 10% FBS and 1% penicillin-streptomycin mixture.
as §3
Transfection: Cells (1-3×10^5 cells/well) were plated in 6-well plates in growth medium without antibiotics, and incubated overnight. After washing cells once with Opti-MEM I (Invitrogen), 800 μL of fresh Opti-MEM I and 200 μL of the Reagent (Invitrogen) were added to the cultured cells. Four hours later, 300 μL of FBS was added to the cultured cells.
Western Blot Analysis: Cell were passed a day before transfection. MUC1 siRNA (0.2 micromolar) was added with oligofectamine to cells in 0% FBS. Four hours later serum was added to a final concentration of 10%. After various time intervals (48 h, 72 h and 96 h), cells were washed and total cell lysates were prepared. Proteins were separated from cell lysates by SDS-PAGE, transferred to nitrocellulose and analyzed by immunoblotting with anti-DF3 antibodies.

MUC1 DF3 antigen = assay: DF3 antigen levels by immunoblot after NM-3; type: cell-based, human
Procedure: MCF-7 cells were treated with NM-3 (2-(8-hydroxy-6-methoxy-1-oxo-1 H-2-benzopyran-3-yl)propionic acid) at 100-400 μg/ml for 48 hr. DF3 antigen levels were visualized by immunoblot analysis with DF3 MAb (Kufe, U.S. Pat. No. 5,506,343, herein incorporated by reference).
A decrease in the intracellular levels of DF3 antigen of NM-3 treated cells relative to non-treated cells was observed. […] To determine whether NM-3 impaired the extracellular localization of the MUC1 DF3 antigen, the antigen levels in cell culture medium supernatants and on MCF-7 cells after NM-3 treatment were investigated. The levels of DF3 antigen were reduced in both localizations.

[6] = test system: epidermal growth factor receptor (EGF-R); assay: EGF-R expression after NM-3; type: cell-based, human; conditions: MCF-7, ZR-75-1 and BT-20 cell lines
Procedure: To determine whether NM-3 inhibits the expression of cellular surface proteins as well, the level of epidermal growth factor receptor (EGF-R) expression after NM-3 treatment was tested on MCF-7, ZR-75-1 and BT-20 cell lines.

intracellular ROS = conditions: NAC pretreatment
Procedure: Measurement of ROS levels: Cells were incubated with 10 mM DCF-DA Sigma) for 15 min. at 37° C. to assess ROS-mediated oxidation of the fluorescent compound DCF (LeBel et al., 1992). Fluorescence of oxidized DCF was measured at an excitation wavelength of 480 nm and an emission wavelength of 525 nm using a flow cytometer (Beckton Dickerson, Lincoln Park, N.J.).
As a control, cells were incubated with NAC, a scavenger of ROS.

For `OO` [hydrogen peroxide], the “apoptotic response (sub-G1 DNA), effect of MUC1” value (HeLa cells; 1 mM hydrogen peroxide for 1 hr) was “MUC1 inhibits the apoptotic response”, the “MUC1 expression (immunoblot)” value (MUC1 [1]; MCF-7 cells) was “rapidly and transiently induced” and the MUC1 expression (MUC1 [2]; 0.1 mM H2O2) was “downregulation of MUC1”.

“siRNA #2: double stranded anti-MUC1 siRNA, target SEQ ID NO: 42, sense SEQ ID NO: 43, antisense SEQ ID NO: 44 (sense GGUACCAUCAAUGUCCACGTT; antisense CGUGGACAUUGAUGGUACCTT; sugars from the 5' end r19 d2, backbone not given here)” was tested, and the “proliferation of A549 cells” value (A549 cells [3]) was “decreased the proliferation”, the “percentage of apoptotic cells” value (A549 cells [4]; A549 cells transfected with siRNA, relative to controls) was “increase” and the “percentage of apoptotic cells, combination” value (A549 cells [4]; A549 cells, siRNA 72 hr then 10 μM CDDP 48 hr) was “more than additively enhances”. For the same compound, the “MUC1 expression at the RNA level (RT-PCR)” value (“MUC1 expression … (RT-PCR)” for short) (MUC1 RNA; A549 cells) was “downregulate MUC1 expression”, the “MUC1 expression … (RT-PCR)” value (MUC1 RNA; MCF-7 cells) was “downregulate MUC1 expression” and the “MUC1 expression at the protein level (immunoblot)” value (MUC1 [5]; A549 cells, FIG. 5) was “downregulate MUC1 expression”. For the same compound, the “MUC1 expression at the protein level (immunoblot)” value (MUC1 [5]; MCF-7 cells, FIG. 5, FIG. 6) was “downregulate MUC1 expression”.

With `COc1cc(O)c2c(=O)oc(C(C)C(=O)O)cc2c1` (centres unmarked) [NM-3, 2-(8-hydroxy-6-methoxy-1-oxo-1 H-2-benzopyran-3-yl)propionic acid] the “levels of DF3 antigen in cell culture medium supernatants and on MCF-7 cells” value (MUC1 DF3 antigen; MCF-7 cells after NM-3 treatment) was “reduced”, the “intracellular levels of DF3 antigen” value (MUC1 DF3 antigen; MCF-7 cells, 100-400 μg/ml for 48 hr, relative to non-treated cells) was “decrease” and the EGF-R expression [6] was “no detectable changes”.

For “siRNA #1: double stranded anti-MUC1 siRNA, target SEQ ID NO: 63, sense SEQ ID NO: 64, antisense SEQ ID NO: 65 (sense GGGGGUUUUCUGGGCCUCUTT; antisense AGAGGCCCAGAAAACCCCCTT; sugars from the 5' end r19 d2, backbone not given here)”, the “proliferation of A549 cells” value (A549 cells [3]) was “decreased the proliferation”, the “MUC1 expression … (RT-PCR)” value (MUC1 RNA; A549 cells) was “downregulate MUC1 expression” and the “MUC1 expression … (RT-PCR)” value (MUC1 RNA; MCF-7 cells) was “downregulate MUC1 expression”. For the same compound, the “MUC1 expression at the protein level (immunoblot)” value (MUC1 [5]; A549 cells, FIG. 5) was “downregulate MUC1 expression” and the “MUC1 expression at the protein level (immunoblot)” value (MUC1 [5]; MCF-7 cells, FIG. 5, FIG. 6) was “downregulate MUC1 expression”.

In the case of `CC(=O)O[C@H]1C(=O)[C@@]2(C)[C@H]([C@H](OC(=O)c3ccccc3)[C@]3(O)C[C@H](OC(=O)[C@H](O)[C@@H](NC(=O)c4ccccc4)c4ccccc4)C(C)=C1C3(C)C)[C@]1(OC(C)=O)CO[C@@H]1C[C@@H]2O` [taxol], the “induced apoptosis (sub-G1 DNA), effect of MUC1” value (HeLa cells; 0.01 mM taxol for 20 hr) is reported as “inhibited by MUC1 expression” and the “MUC1 induction by diverse cytotoxic agents” value (MUC1 [1]; available evidence, cells not given) is reported as “induced”.

In the case of `CC(=O)N[C@@H](CS)C(=O)O` [NAC, N-acetylcysteine], the “CDDO-induced ROS production” value (intracellular ROS) is reported as “abrogation”, the “CDDO-, CDDO-Me-, CDDO-Im- and CDDO-Pr-Im-induced decreases in MUC1” value (MUC1 [2]; cells treated with antioxidant) is reported as “blocked” and the “H2O2-induced downregulation of MUC1” value (MUC1 [2]; with NAC) is reported as “reversed”.
